Literature values, collected in patent publication US10919926B2, “Compound or salt thereof, natural killer T cell activator, and pharmaceutical composition” (KEIO UNIVERSITY, priority 2016, dated 2021).

Tested on: RBL-CD1d cells and NKT hybridoma 2E10 cells
Conditions: previously known

Structure (SMILES): CCCCCCCCCCCCCCCCCCCCCCCCCC(=O)N[C@@H](CO[C@H]1O[C@H](CO)[C@H](O)[C@H](O)[C@H]1O)[C@H](O)[C@H](O)CCCCCCCCCCCCCC [α-GalCer, α-galactosylceramide]
- cytokine-inducing capacity compared with β-GalCer and C19: higher than β-GalCer and C19
